Test system: lashes and adjacent hairs of glaucoma patients
Assay: Eyelash/hair growth observed in glaucoma patients treated in one eye
Format: in vivo, humans
Conditions: glaucoma patient treated in one eye only
From the text: In the course of treating patients having glaucoma, treatment may only be appropriate in one eye. […] The lash appearance on the lids of the treated eyes would have appeared quite attractive if it represented a bilateral phenomenon. As a result of its asymmetric nature, the long lashes on one side could be construed as disturbing from a cosmetic standpoint. A systemic examination was preformed as a result of the asymmetric phenomenon. It soon became apparent that this altered appearance was not an isolated finding. […] Definite differences could be identified to varying degrees in the lashes and adjacent hairs of all patients who were taking the drug on a unilateral basis for longer than 6 months.
The changes in the lashes were apparent on gross inspection in several patients once attention was focused on the issue. In those with light colored hair and lashes, the differences were only seen easily with the aid of the high magnification and lighting capabilities of the slit lamp biomicroscope. In the course of glaucoma follow-up examination, attention is generally immediately focused on the eye itself. As a result of the high power magnification needed only one eye is seen at a time and the eye is seen at a high enough power that the lashes are not in focus. […]

CCNC(=O)CCC/C=C\C[C@@H]1[C@@H](/C=C/[C@@H](O)CCc2ccccc2)[C@H](O)C[C@@H]1O [bimatoprost]
lash appearance in treated eye versus non-treated eye: longer, thicker, and fuller

Source: US20090233931A1, “THERAPEUTIC COMPOUNDS” (priority 2008, published 2009)
